Reference: the supplement of paper PMC10307832

Experiments:
Assay in all cases: relative viability (nuclei count vs DMSO), 5 days (fraction); higher = more cells survive
[1] = tested on: BEN
In short: (§1)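 Cells from lung cancer lines were seeded into 1536-well plates and, one day later, dosed by pin tool. Treatments were either a single drug or a fixed dose of an anchor drug with five library-drug doses (not always all listed) in √10 steps. After 5 days, nuclei were stained in a one-step fixation (final 0.05% Triton X-100, 1% formaldehyde, 1 ug/ml Hoechst) and counted on 4× images, and relative viability is the treated-to-vehicle nuclei ratio, as the median of duplicate plates.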

[2] = tested on: CAL-12T
In short: as §1

[3] = tested on: COR-L23
In short: as §1

[4] = tested on: LU99A
In short: as §1

[5] = tested on: LXF-289
In short: as §1

[6] = tested on: NCI-H1355
In short: as §1

[7] = tested on: NCI-H1437
In short: as §1

[8] = tested on: NCI-H1563
In short: as §1

[9] = tested on: NCI-H1650
In short: as §1

[10] = tested on: NCI-H1651
In short: as §1

[11] = tested on: NCI-H1666
In short: as §1

[12] = tested on: NCI-H1755
In short: as §1

[13] = tested on: NCI-H1792
In short: as §1

[14] = tested on: NCI-H1993
In short: as §1

[15] = tested on: NCI-H2085
In short: as §1

[16] = tested on: NCI-H2087
In short: as §1

[17] = tested on: NCI-H2170
In short: as §1

[18] = tested on: NCI-H460
In short: as §1

[19] = tested on: NCI-H520
In short: as §1

[20] = tested on: PC-14
In short: as §1

[21] = tested on: SK-MES-1
In short: as §1

`Cc1cn(-c2cc(NC(=O)c3ccc(C)c(Nc4nccc(-c5cccnc5)n4)c3)cc(C(F)(F)F)c2)cn1` [Nilotinib] + Cc1nc(Nc2ncc(C(=O)Nc3c(C)cccc3Cl)s2)cc(N2CCN(CCO)CC2)n1 [Dasatinib] (partner 0.075 µM) gave a relative viability ([1]; first compound 0.001 µM) of 0.336, a relative viability ([1]; first compound 0.003162 µM) of 0.338 and a relative viability ([1]; first compound 0.01 µM) of 0.278. For the same molecule, the relative viability ([1]; first compound 0.03162 µM) was 0.322, the relative viability ([1]; first compound 0.1 µM) was 0.221 and the relative viability ([2]; first compound 0.001 µM) was 0.376. For the same molecule, the relative viability ([2]; first compound 0.003162 µM) was 0.387, the relative viability ([2]; first compound 0.01 µM) was 0.456 and the relative viability ([2]; first compound 0.03162 µM) was 0.178. The relative viability ([2]; first compound 0.1 µM) was 0.137, the relative viability ([3]; first compound 0.001 µM) was 0.482 and the relative viability ([3]; first compound 0.003162 µM) was 0.501. The relative viability ([3]; first compound 0.01 µM) was 0.511, the relative viability ([3]; first compound 0.03162 µM) was 0.265 and the relative viability ([3]; first compound 0.1 µM) was 0.407. The relative viability ([4]; first compound 0.001 µM) was 0.482, the relative viability ([4]; first compound 0.003162 µM) was 0.702 and the relative viability ([4]; first compound 0.01 µM) was 0.557. It also gave a relative viability ([4]; first compound 0.03162 µM) of 0.359, a relative viability ([4]; first compound 0.1 µM) of 0.282 and a relative viability ([5]; first compound 0.001 µM) of 0.214. The relative viability ([5]; first compound 0.003162 µM) was 0.239, the relative viability ([5]; first compound 0.01 µM) was 0.188 and the relative viability ([5]; first compound 0.03162 µM) was 0.207. For the same molecule, the relative viability ([5]; first compound 0.1 µM) was 0.136, the relative viability ([6]; first compound 0.001 µM) was 0.653 and the relative viability ([6]; first compound 0.003162 µM) was 0.751. For the same molecule, the relative viability ([6]; first compound 0.01 µM) was 0.556, the relative viability ([6]; first compound 0.03162 µM) was 0.46 and the relative viability ([6]; first compound 0.1 µM) was 0.333. It also gave a relative viability ([7]; first compound 0.001 µM) of 0.366, a relative viability ([7]; first compound 0.003162 µM) of 0.327 and a relative viability ([7]; first compound 0.01 µM) of 0.373. The relative viability ([7]; first compound 0.03162 µM) was 0.296, the relative viability ([7]; first compound 0.1 µM) was 0.164 and the relative viability ([8]; first compound 0.001 µM) was 0.447. It also gave a relative viability ([8]; first compound 0.003162 µM) of 0.447, a relative viability ([8]; first compound 0.01 µM) of 0.442 and a relative viability ([8]; first compound 0.03162 µM) of 0.492. It also gave a relative viability ([8]; first compound 0.1 µM) of 0.329, a relative viability ([9]; first compound 0.001 µM) of 0.335 and a relative viability ([9]; first compound 0.003162 µM) of 0.32. The relative viability ([9]; first compound 0.01 µM) was 0.265, the relative viability ([9]; first compound 0.03162 µM) was 0.321 and the relative viability ([9]; first compound 0.1 µM) was 0.21. It also gave a relative viability ([10]; first compound 0.001 µM) of 0.426, a relative viability ([10]; first compound 0.003162 µM) of 0.387 and a relative viability ([10]; first compound 0.01 µM) of 0.42. It also gave a relative viability ([10]; first compound 0.1 µM) of 0.208, a relative viability ([11]; first compound 0.001 µM) of 0.783 and a relative viability ([11]; first compound 0.003162 µM) of 0.886. The relative viability ([11]; first compound 0.01 µM) was 0.797, the relative viability ([11]; first compound 0.03162 µM) was 0.719 and the relative viability ([11]; first compound 0.1 µM) was 0.778. It also gave a relative viability ([12]; first compound 0.001 µM) of 0.376, a relative viability ([12]; first compound 0.003162 µM) of 0.381 and a relative viability ([12]; first compound 0.01 µM) of 0.404. The relative viability ([12]; first compound 0.03162 µM) was 0.276, the relative viability ([12]; first compound 0.1 µM) was 0.184 and the relative viability ([13]; first compound 0.001 µM) was 0.614. It also gave a relative viability ([13]; first compound 0.003162 µM) of 0.591, a relative viability ([13]; first compound 0.01 µM) of 0.785 and a relative viability ([13]; first compound 0.1 µM) of 1.36. The relative viability ([14]; first compound 0.001 µM) was 0.625, the relative viability ([14]; first compound 0.003162 µM) was 0.546 and the relative viability ([14]; first compound 0.01 µM) was 0.495. For the same molecule, the relative viability ([14]; first compound 0.03162 µM) was 0.516, the relative viability ([14]; first compound 0.1 µM) was 0.627 and the relative viability ([15]; first compound 0.001 µM) was 0.28. The relative viability ([15]; first compound 0.003162 µM) was 0.198, the relative viability ([15]; first compound 0.01 µM) was 0.179 and the relative viability ([15]; first compound 0.03162 µM) was 0.231. For the same molecule, the relative viability ([15]; first compound 0.1 µM) was 0.248, the relative viability ([16]; first compound 0.001 µM) was 0.821 and the relative viability ([16]; first compound 0.003162 µM) was 1.33. For the same molecule, the relative viability ([16]; first compound 0.01 µM) was 1.13, the relative viability ([16]; first compound 0.03162 µM) was 0.357 and the relative viability ([16]; first compound 0.1 µM) was 0.203. For the same molecule, the relative viability ([17]; first compound 0.001 µM) was 0.591, the relative viability ([17]; first compound 0.003162 µM) was 0.576 and the relative viability ([17]; first compound 0.01 µM) was 0.736. The relative viability ([17]; first compound 0.03162 µM) was 0.465, the relative viability ([17]; first compound 0.1 µM) was 0.406 and the relative viability ([18]; first compound 0.001 µM) was 0.487. The relative viability ([18]; first compound 0.003162 µM) was 0.384, the relative viability ([18]; first compound 0.01 µM) was 0.65 and the relative viability ([18]; first compound 0.03162 µM) was 0.444. It also gave a relative viability ([18]; first compound 0.1 µM) of 0.432, a relative viability ([19]; first compound 0.001 µM) of 0.224 and a relative viability ([19]; first compound 0.003162 µM) of 0.171. The relative viability ([19]; first compound 0.01 µM) was 0.198, the relative viability ([19]; first compound 0.03162 µM) was 0.156 and the relative viability ([19]; first compound 0.1 µM) was 0.147. It also gave a relative viability ([20]; first compound 0.001 µM) of 0.226, a relative viability ([20]; first compound 0.003162 µM) of 0.254 and a relative viability ([20]; first compound 0.01 µM) of 0.198. The relative viability ([20]; first compound 0.03162 µM) was 0.16, the relative viability ([20]; first compound 0.1 µM) was 0.0622 and the relative viability ([21]; first compound 0.001 µM) was 0.306. The relative viability ([21]; first compound 0.003162 µM) was 0.334, the relative viability ([21]; first compound 0.01 µM) was 0.308 and the relative viability ([21]; first compound 0.03162 µM) was 0.29. It also gave a relative viability ([21]; first compound 0.1 µM) of 0.207.
